From publication PMC7729195, “Pharmacodynamic Functions of Synthetic Derivatives for Treatment of Methicillin-Resistant Staphylococcus aureus (MRSA) and Mycobacterium tuberculosis” (Frontiers in Microbiology, 2020)
In brackets after ≈: the same amount, converted by molar mass. Several values for one entry are separate records, joined by “and”; a condition that tells them apart may be missing. Identical values can stand only once.

What was measured:
resistant strains = test: MIC against resistant strains; assay type: cell-based; conditions: read-out: MIC against resistant strains
MRSA [1] = test: Time-kill study against MRSA; assay type: cell-based, Staphylococcus aureus; conditions: for Bactericidal character: conclusion of time-kill studies; for Effect of sub-inhibitory combination with vancomycin on MRSA growth: sub-inhibitory combinations with vancomycin
[2] = test system: A549, THP-1, HepG2 and HEK 293 cell lines; assay type: cell-based, human
Description: (§1) Human alveolar epithelial cells (A549), ([Giard et al., 1973]), Madin-Darby canine kidney epithelial cells (MDCK), ([Gaush et al., 1966]), human leukemia cells (THP-1) ([Tsuchiya et al., 1980]), human hepatocellular carcinoma cells (Hep-G2), ([Aden et al., 1979]), and human embryonic kidney cells 293 (HEK293) ([Graham et al., 1977]) were grown and differentiated in complete RPMI (Roswell Park Memorial Institute Medium) and DMEM (Dulbecco’s Modified Eagle’s medium) tissue culture media (RPMIc and DMEMc). To determine toxicity of the AIMS extract library, 2 × 10^5 of each cell type were added to a 96-well plate and left for 48 h at 37°C to adhere. Extract samples at a final concentration of 0.5 mg mL^–1 were added to the wells, then incubated for 7 days in a humidified 5% CO2 incubator at 37°C. Then resazurin (10 μL of 0.05% w/v) was added, and after 4 h, fluorescence measured as described previously. Cell viability was calculated as percentage fluorescence relative to untreated cells.

MRSA [3] = test: Minimum bactericidal concentration (MBC) for MRSA; assay type: cell-based, Staphylococcus aureus; set-up: unit not given here; conditions: sub-culture on agar, 18 h
TB. H37Rv = test: Minimum bactericidal concentration (MBC) for TB; assay type: cell-based, Mycobacterium tuberculosis; set-up: unit not given here; conditions: sub-culture on agar, 7 days
E. coli EC958 = test: Bacterial inhibition assay (resazurin), MIC against E. coli; assay type: cell-based, Escherichia coli; conditions: synthetic compounds, 18 h incubation; for MIC: Escherichia coli, EC958
M. tuberculosis H37Rv [4] = test: Checkerboard assay with rifampicin against M. tuberculosis; assay type: cell-based, Mycobacterium tuberculosis; conditions: for Drug–drug interactions / FIC: M. tuberculosis, compound with rifampicin; for MIC50: Mycobacterium tuberculosis, H37RV, read-out: Compound alone MIC50 for M. tuberculosis
MRSA [5] = test: Bacterial inhibition assay (resazurin), MIC against MRSA; assay type: cell-based, Staphylococcus aureus; set-up: MIC for MRSA: unit not given here; conditions: for MIC: Staphylococcus aureus, MRSA, synthetic compounds, 18 h incubation; for MIC for MRSA: Table 6 summary
MRSA [6] = test: Checkerboard assay with vancomycin against MRSA; assay type: cell-based, Staphylococcus aureus; conditions: for FIC / MIC50 / Drug–drug interactions: MRSA; for FIC / Drug–drug interactions: compound with vancomycin; for MIC50: Staphylococcus aureus, compound alone; for Activity against MRSA in combination with vancomycin: vancomycin plus compound
THP1 = assay type: cell-based; conditions: human, 7 days
Description: as §1

A549 = assay type: cell-based; conditions: human, 7 days
Description: as §1

HepG2 = assay type: cell-based; conditions: human, 7 days
Description: as §1

HEK 293 = assay type: cell-based; conditions: human, 7 days
Description: as §1

M. tuberculosis H37Rv [7] = test: Bacterial inhibition assay (resazurin), MIC against M. tuberculosis; assay type: cell-based, Mycobacterium tuberculosis; set-up: MIC for TB. H37Rv: unit not given here; conditions: for MIC: Mycobacterium tuberculosis, H37RV, 168 h; for MIC for TB. H37Rv: Table 6 summary
M. tuberculosis = test: Time-kill study against M. tuberculosis; assay type: cell-based, Mycobacterium tuberculosis; conditions: for Effect on bacterial viability: compound treatment, day 6
Description: Time-kill experiments were performed by culturing MRSA and M. tuberculosis in liquid medium in the presence of six synthesized sample concentrations in doubling dilutions ranging from 8 to 0.001 × MIC and 2 × MIC for both bacteria, respectively. Growth curves were initially generated to confirm that bacteria would reach a stable early- to mid-log phase after 2 and 48 h of pre-incubation in antimicrobial-free both medium, respectively. Samples were taken in different incubation times after drug exposure at 0, 2, 4, 6, 8, and 24 h for MRSA and 24, 48 h, and 4 and 6 days for M. tuberculosis and then plated onto agar plates for CFU determination. The experiments were carried out in duplicate and repeated three times.

P. aeruginosa PAO1 = test: Bacterial inhibition assay (resazurin), MIC against P. aeruginosa; assay type: cell-based, Pseudomonas aeruginosa; conditions: synthetic compounds, 18 h incubation; for MIC: Pseudomonas aeruginosa, PAO1
[8] = synthetic compounds, 7 days incubation
[9] = compound 12.5 μM plus vancomycin 50 μg mL^–1

Row | SMILES | Bactericidal character (MRSA [1]) | Effect of sub-inhibitory combination with vancomycin on MRSA growth (MRSA [1]) | Toxicity against THP1 and/or HEK 293 cells [2] | MBC for MRSA (MRSA [3]) | MBC for TB. H37Rv (TB. H37Rv) | MIC (E. coli EC958) [µM] | FIC (M. tuberculosis H37Rv [4]) | MIC50 (M. tuberculosis H37Rv [4]) [µM] | MIC (MRSA [5]) [µM] | MIC for MRSA (MRSA [5]) | FIC (MRSA [6]) | MIC50 (MRSA [6]) [µM] | Minimum toxicity concentration of drug (MTC) THP1 (THP1) [µM] | Minimum toxicity concentration of drug (MTC) A549 (A549) [µM] | Minimum toxicity concentration of drug (MTC) HepG2 (HepG2) [µM] | Minimum toxicity concentration of drug (MTC) HEK 293 (HEK 293) [µM] | MIC (M. tuberculosis H37Rv [7]; [8]) [µM] | MIC for TB. H37Rv (M. tuberculosis H37Rv [7]) | Effect on bacterial viability (M. tuberculosis) | MIC (P. aeruginosa PAO1) [µM] | also measured
1 | CCCCCCCCN(CCCCCCCC)c1cccc(C)c1 [Compound 1a, N,N-Dioctyl-3-Methylaniline] | strongly bactericidal and concentration dependent | substantially inhibited growth of MRSA | some toxicity | 25 | 25 | 12.5 ± 5 (≈ 4.14 µg/mL) | 1.1 | 1.5 | 12.5 ± 1 (≈ 4.14 µg/mL) | 12.5 | 0.45 | 12.5 | 50 ± 2.0 | >100 ± 4.1 | >100 ± 3.0 | 50 ± 0.9 | 1.5 ± 3 (≈ 0.497 µg/mL) | 1.5 | significant reduction in bacterial viability | 6.2 ± 9 (≈ 2.06 µg/mL) | MIC (resistant strains): 6.7 to 20 µM (≈ 2.22 to 6.63 µg/mL); MTC on all cell lines tested ([2]; human, 7 days): 50 to 100 µM; Drug–drug interactions (M. tuberculosis H37Rv [4]): Indifference (0.25–4 indifferent or additive activity); Activity against MRSA in combination with vancomycin (MRSA [6]): bactericidal activity
2 | CCCCCCCCN(CCCCCCCC)c1ccc(C)cc1 [Compound 1b, N,N-Dioctyl-4-Methylaniline] | – | substantially inhibited growth of MRSA | – | 200 | 100 | 100 ± 1 (≈ 33.2 µg/mL) | 1.1 | 6.25 | 100 ± 5.4 (≈ 33.2 µg/mL) | 100 | 1.2 | 100 | >100 ± 2.0 | >100 ± 3.8 | >100 ± 0.9 | >100 ± 6.0 | 25 ± 1 (≈ 8.29 µg/mL) | 6.25 | significant reduction in bacterial viability | 100 ± 6.5 (≈ 33.2 µg/mL) | Time-kill effect against log-phase MRSA (MRSA [1]; 100 μM): rapidly reduced growth by 1 h post-treatment; Effect on regrowth of MRSA (MRSA [1]; [9]): substantially reduced regrowth; Toxicity against all four cell lines [2]: low toxicity; Drug–drug interactions (M. tuberculosis H37Rv [4]): Indifference (0.25–4 indifferent or additive activity); Drug–drug interactions (MRSA [6]): Indifference (0.25–4 indifferent or additive activity)
3 | CCCCCCCCN(CCCCCCCC)Cc1ccccc1 [Compound 2a, N-Benzyl-N-Octyloctan-1Amine] | strongly bactericidal and concentration dependent | substantially inhibited growth of MRSA | some toxicity | 100 | 25 | 50 ± 1 (≈ 16.6 µg/mL) | 1.1 | 1.5 | 12.5 ± 0.7 (≈ 4.14 µg/mL) | 12.5 | 0.328 and 0.33 | 12.5 | 6.5 ± 0.8 | >100 ± 1.0 | >100 ± 0.8 | 50 ± 4.0 | 1.5 ± 1 (≈ 0.497 µg/mL) | 1.5 | significant reduction in bacterial viability | 50 ± 1 (≈ 16.6 µg/mL) | Time to bactericidal effect (MRSA [1]; [9]): 1 h; Net-growth of MRSA (MRSA [1]; compound 1.5 to 0.1 μM plus vancomycin 50 μg mL^–1, at 24 h): up to 102 CFU mL^–1; Drug–drug interactions (M. tuberculosis H37Rv [4]): Indifference (0.25–4 indifferent or additive activity); Activity against MRSA in combination with vancomycin (MRSA [6]): bactericidal activity
4 | CCCCCCCCCCN(CCCCCC)CCCCCC [Compound 3, N,N-Dihexyldecan-1-Amine] | strongly bactericidal and concentration dependent | substantially inhibited growth of MRSA | some toxicity | 12.5 | 6.25 | 6.2 (≈ 2.02 µg/mL) | 0.4 | 1.5 | 12.5 ± 1 (≈ 4.07 µg/mL) | 12.5 | 1.2 | 12.5 | 50 ± 5.0 | >100 ± 2.0 | >100 ± 1.0 | 25 ± 2.0 | 3.1 (≈ 1.01 µg/mL) | 1.5 | significant reduction in bacterial viability | 3.1 (≈ 1.01 µg/mL) | Concentration at which killing was observed (MRSA [1]; time-kill, MRSA): 12.5 μg mL^–1; MIC E. coli (E. coli EC958): 6.2 ± 1.0 µM (≈ 2.02 µg/mL); Effect against M. tuberculosis in combination with rifampicin (M. tuberculosis H37Rv [4]; rifampicin plus compound): synergistic or bactericidal effects; Drug–drug interactions (MRSA [6]): Indifference (0.25–4 indifferent or additive activity); MIC M. tuberculosis (M. tuberculosis H37Rv [7]; [8]): 3.1 ± 0.7 µM (≈ 1.01 µg/mL); Killing effect with rifampicin (M. tuberculosis; rifampicin plus compound, day 7 of treatment): comparable killing effects; MIC P. aeruginosa (P. aeruginosa PAO1): 3.1 ± 5.0 µM (≈ 1.01 µg/mL)
5 | CN[C@H](CC(C)C)C(=O)N[C@H]1C(=O)N[C@@H](CC(N)=O)C(=O)N[C@H]2C(=O)N[C@H]3C(=O)N[C@H](C(=O)N[C@H](C(=O)O)c4cc(O)cc(O)c4-c4cc3ccc4O)[C@H](O)c3ccc(c(Cl)c3)Oc3cc2cc(c3O[C@@H]2O[C@H](CO)[C@@H](O)[C@H](O)[C@H]2O[C@H]2C[C@](C)(N)[C@H](O)[C@H](C)O2)Oc2ccc(cc2Cl)[C@H]1O [vancomycin, Vancomycin, reference compound] | – | – | – | – | – | – | – | – | – | – | – | – | – | – | – | – | – | – | – | – | Viable count after regrowth (MRSA [1]; 50 μg mL^–1, after 24h): 106 CFU mL^–1; Time-kill effect against MRSA (MRSA [1]; 100 μg mL^–1 at 24 h): bactericidal effect; Time-kill effect against MRSA compared to untreated bacteria (MRSA [1]; concentrations up to 50 μg mL^–1): did not have an antibacterial effect
